From ChEMBL document CHEMBL5050844 (2019) come the findings set out here.

Assay [1] in a line: Induction of anti-CD3/CD28 antibodies-stimulated human T cell activation at 4 uM assessed fold increase in IL-2 secretion measured by ELISA assay. Type of assay: functional, T cell line. Background: An ELISA detects its analyte on a solid surface through an enzyme-linked reagent.
The nature of assay [2]: Induction of anti-CD3/CD28 antibodies-stimulated human T cell activation at 1 uM assessed fold increase in IL-2 secretion measured by ELISA assay. Type of assay: functional, T cell line.
Assay [3] is described as follows: Induction of anti-CD3/CD28 antibodies-stimulated human T cell activation at 0.3 uM assessed fold increase in IL-2 secretion measured by ELISA assay. Type of assay: functional, T cell line.
Assay [4] can be described thus: Induction of anti-CD3 antibodies-stimulated human T cell activation at 8 uM assessed fold increase in IL-2 secretion measured by ELISA assay. Further: reference of the scale not given here. Type of assay: functional, T cell line.
Assay [5] is described as follows: Induction of anti-CD3 antibodies-stimulated human T cell activation at 1 uM assessed fold increase in IL-2 secretion measured by ELISA assay. Further: reference of the scale not given here. Type of assay: functional, T cell line.
The nature of assay [6]: Induction of anti-CD3/CD28 antibodies-stimulated human T cell activation at 4 uM assessed fold increase in CD25 expression measured by ELISA assay. Type of assay: functional, T cell line.
Assay [7] in a line: Induction of anti-CD3/CD28 antibodies-stimulated human T cell activation at 1 uM assessed fold increase in CD25 expression measured by ELISA assay. Type of assay: functional, T cell line.
The nature of assay [8]: Induction of anti-CD3/CD28 antibodies-stimulated human T cell activation at 0.3 uM assessed fold increase in CD25 expression measured by ELISA assay. Type of assay: functional, T cell line.
A short description of assay [9]: Induction of anti-CD3 antibodies-stimulated human T cell activation at 8 uM assessed fold increase in CD25 expression measured by ELISA assay. Further: reference of the scale not given here. Type of assay: functional, T cell line.
A short description of assay [10]: Induction of anti-CD3 antibodies-stimulated human T cell activation at 1 uM assessed fold increase in CD25 expression measured by ELISA assay. Further: reference of the scale not given here. Type of assay: functional, T cell line.
For assay [11], the target named is E3 ubiquitin-protein ligase CBL-B (Homo sapiens, UniProt Q13191). The assay is described as follows: Inhibition of N-terminal Avi-tagged human CBL-B (36 to 427 residues) incubated with 60 nM Src kinase for 1.5 hrs followed by incubation with fluorescently labeled UbcH5B-Ub for 1 hr and measured by TR-FRET assay. Type of assay: single protein. (In general: In TR-FRET formats the signal depends on donor and acceptor labels being close together.)
E3 ubiquitin-protein ligase CBL-B, sequence (Q13191 whole entry, the tested form may be a part): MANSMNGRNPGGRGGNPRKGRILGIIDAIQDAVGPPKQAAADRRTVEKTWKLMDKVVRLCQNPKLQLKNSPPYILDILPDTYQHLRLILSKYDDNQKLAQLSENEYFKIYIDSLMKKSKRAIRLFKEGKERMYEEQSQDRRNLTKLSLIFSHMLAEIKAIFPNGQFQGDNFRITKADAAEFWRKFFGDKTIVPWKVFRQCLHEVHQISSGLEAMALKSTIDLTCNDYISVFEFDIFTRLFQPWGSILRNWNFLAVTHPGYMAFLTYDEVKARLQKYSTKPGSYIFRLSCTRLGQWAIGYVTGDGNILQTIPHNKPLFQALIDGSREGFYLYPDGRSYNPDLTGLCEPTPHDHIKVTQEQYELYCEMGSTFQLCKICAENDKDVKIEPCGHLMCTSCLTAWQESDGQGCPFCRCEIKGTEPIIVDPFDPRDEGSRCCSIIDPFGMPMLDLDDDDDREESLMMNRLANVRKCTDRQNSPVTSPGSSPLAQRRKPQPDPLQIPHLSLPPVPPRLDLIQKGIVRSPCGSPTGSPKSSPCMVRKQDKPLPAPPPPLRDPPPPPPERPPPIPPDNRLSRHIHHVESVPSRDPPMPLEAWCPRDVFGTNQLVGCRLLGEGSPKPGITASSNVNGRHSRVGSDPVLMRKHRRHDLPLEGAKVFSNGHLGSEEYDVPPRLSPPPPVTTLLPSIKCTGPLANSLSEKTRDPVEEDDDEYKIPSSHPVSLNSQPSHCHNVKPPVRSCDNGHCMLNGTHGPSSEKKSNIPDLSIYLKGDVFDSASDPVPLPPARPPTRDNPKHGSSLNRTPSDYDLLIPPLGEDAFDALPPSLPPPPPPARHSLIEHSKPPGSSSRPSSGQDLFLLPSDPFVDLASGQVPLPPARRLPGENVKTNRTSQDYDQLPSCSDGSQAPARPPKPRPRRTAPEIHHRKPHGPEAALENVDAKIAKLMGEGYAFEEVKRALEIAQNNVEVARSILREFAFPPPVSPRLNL

As for `Cn1cnnc1CC(c1cccc(N2Cc3c(cccc3C(F)(F)F)C2=O)c1)C(F)(F)F` (configuration not stated), the “fold change (FC)” value in [1] is recorded as 1.01; in assay [2] it was “<=1”; in assay [3], “<=1”; in [4], 0.151; in assay [5], 0.101; in [6] it was 1.01. Further, the “fold change (FC)” value is given as 1.01 in assay [7], 1.01 in [8], 0.801 in [9] and 0.801 in assay [10].
Turning to `Cn1cnnc1C[C@H](c1cccc(N2Cc3c(cccc3C(F)(F)F)C2=O)c1)C(F)(F)F`, the “fold change (FC)” value is recorded as 1.01 in [1]; 1.01 in [2]; 1.01 in assay [3]; 0.101 in assay [4]; 0.051 in assay [5]; 1.01 in assay [6]. Further, the “fold change (FC)” value in assay [7] stood at 1.01; in assay [8] it was 1.01; in assay [9], 0.801; in [10] it was 0.601.
Take `C[C@H](Cc1nncn1C)c1cc(OC2COC2)nc(N2Cc3c(cccc3C(F)(F)F)C2=O)c1`: the “fold change (FC)” value is given as 1.01 in [1]; 1.01 in assay [2]; 1.01 in assay [3]; “>=0.201” in [4]; 0.101 in assay [5]; 1.31 in assay [6]. Moreover, the “fold change (FC)” value was 1.01 in [7], 1.01 in assay [8], “>=1.001” in assay [9] and 0.601 in assay [10].
Consider `C[C@H](Sc1nncn1C)c1ccnc(NC(=O)c2cc(Cl)cc(C(F)(F)F)n2)c1`, for which the “fold change (FC)” value in assay [1] is on record as “<=1”; in assay [2], 1.01; in assay [3], 1.01; in assay [4] it was “<=0.05”; in [5] it was “<=0.05”; in assay [6], “<=1”. Also, the “fold change (FC)” value in [7] was 1.01; in assay [8] it was 1.01; in assay [9] it was 0.601; in assay [10], “<=0.6”.
Regarding `Cn1cnnc1[C@@H]1C[C@@H]1c1cccc(N2Cc3c(cc(C#N)cc3C(F)(F)F)C2=O)c1`, the “fold change (FC)” value is 2.51 in assay [1]; 1.01 in assay [2]; 1.01 in assay [3]; 0.101 in assay [4]; “<=0.05” in assay [5]; 1.01 in assay [6]. Moreover, the “fold change (FC)” value in [7] turned out to be 1.01; in assay [8], 1.01; in assay [9], 0.801; in assay [10], 0.601.
As for `C[C@H](Cc1nncn1C)c1cccc(N2Cc3c(ccnc3C3CCC3)C2=O)c1`, the “fold change (FC)” value in assay [1] is 5; in assay [2], 2.51; in assay [3] it was 1.01; in assay [4], 0.101; in [5], 0.051; in assay [6], 1.01. Further, the “fold change (FC)” value in assay [7] is 1.01; in assay [8], “<=1”; in assay [9], “>=1.001”; in assay [10], “>=1.001”.
Regarding `C[C@H](Cc1nncn1C)c1cccc(N2Cc3c(ccnc3C(C)(C)F)C2=O)c1`, in assay [1], the “fold change (FC)” value is “>=7.5”.
For `Cc1ccc(C(=O)Nc2cccc([C@@H](C)Cc3nccn3C)c2)nc1C1CC1`, the “fold change (FC)” value in assay [1] (4 µM) is 1.01; in assay [2] (1 µM), 1.01; in assay [3] (0.3 µM) it was 1.01; in [5] (1 µM) it was “<=0.05”; in [9] (8 µM) it was 0.601.
As to `Cn1cnnc1CC1(c2cccc(N3Cc4c(cc(N5CCN6CCC[C@H]6C5)cc4C(F)(F)F)C3=O)c2)COC1`, the IC50 (in general, the point on the concentration scale where inhibition reaches its midpoint) in [11] was less than 100 nM. Besides, the “fold change (FC)” value in assay [2] was “>=7.5”; in assay [3] it was “>=7.5”; in [5] it was “>=0.201”; in assay [7] it was “>=1.76”; in [8], “>=1.76”; in assay [10] it was “>=1.001”.
`Cn1cnnc1CC1(c2cccc(N3Cc4c(cc(CN5C6CCC5CC6)cc4C(F)(F)F)C3=O)c2)COC1` returned a half-inhibitory concentration (IC50) in [11] of less than 100 nM. For the same compound, the “fold change (FC)” value in assay [2] is reported as “>=7.5”; in [3], “>=7.5”; in assay [5], “>=0.201”; in [7], 1.51; in assay [8], 1.51; in assay [10], “>=1.001”.
As for `Cn1cnnc1CC1(c2cccc(N3Cc4c(cc(CN5CCC(C)(F)C5)cc4C(F)(F)F)C3=O)c2)COC1` (configuration not stated), the half-inhibitory concentration (IC50) in assay [11] was less than 100 nM. Moreover, the “fold change (FC)” value in [2] is “>=7.5”; in assay [3] it was “>=7.5”; in assay [5], “>=0.201”; in assay [7], 1.31; in [8] it was 1.31; in [10], “>=1.001”.
The compound `Cn1cnnc1CC1(c2cccc(N3Cc4c(cc(CN5Cc6ccc(F)cc6C5)cc4C(F)(F)F)C3=O)c2)COC1` had an IC50 in [11] of less than 100 nM. Also, the “fold change (FC)” value in [2] is reported as “>=7.5”; in assay [3], 5; in assay [5] it was “>=0.201”; in [7], 1.31; in [8], 1.31; in [10] it was “>=1.001”.
As for `CO[C@@H]1CCN(Cc2cc3c(c(C(F)(F)F)c2)CN(c2cccc(C4(Cc5nncn5C)COC4)c2)C3=O)C[C@@H]1F` (relative stereo), the half-maximal inhibitory concentration (IC50) in [11] was less than 100 nM. Moreover, the “fold change (FC)” value is listed as “>=7.5” in assay [2]; “>=7.5” in assay [3]; “>=0.201” in assay [5]; 1.31 in assay [7]; 1.31 in [8]; “>=1.001” in [10].
In the case of `Cn1cnnc1CC1(c2cccc(N3Cc4c(cc(CN5CCOCC5)cc4C(F)(F)F)C3=O)c2)COC1`, the IC50 in assay [11] is less than 100 nM. Also, the “fold change (FC)” value is on record as “>=7.5” in [2]; 2.51 in assay [3]; “>=0.201” in assay [5]; 1.31 in assay [7]; 1.31 in assay [8]; “>=1.001” in [10].
For the compound `CC(c1cc2c(c(C(F)(F)F)c1)CN(c1cccc(C3(Cc4nncn4C)COC3)c1)C2=O)N1CC(S(C)(=O)=O)C1` (configuration not stated), in assay [11], the concentration for half-maximal inhibition (IC50) was less than 100 nM. Further, the “fold change (FC)” value in [2] is given as 1.01; in [3], 1.01; in assay [5] it was 0.101; in assay [7], 1.01; in [8] it was 1.01; in assay [10], 0.601.
`Cn1cnnc1[C@H](F)C1(c2cccc(N3Cc4c(cc(CN5CCCC5)cc4C(F)(F)F)C3=O)c2)COC1` registered a half-maximal inhibitory concentration (IC50) in assay [11] of less than 100 nM. For the same compound, the “fold change (FC)” value in assay [2] is recorded as “>=7.5”; in assay [3], “>=7.5”; in [5], “>=0.201”; in [7] it was 1.31; in assay [8] it was 1.31; in assay [10], “>=1.001”.
